Experimental data: US20050238672A1, “Antifungal drug delivery” (priority 2004, published 2005)

Columns and labels:
[1] = solubility of terbinafine in benzyl alcohol; assay type: physicochemical; details: room temperature, with stirring
Description: In a preferred embodiment, the antifungal agent, terbinafine (an allylamine compound) used to treat infections of the nails and of the sub and peri-plantar regions of the foot (moccasin distribution) is dissolved in benzyl alcohol at room temperature with the aid of stirring. […] Two grams of terbinafine are therefore dissolved in 5 ml of benzyl alcohol. To this solution 85 ml of ethyl alcohol anhydrous and 10ml of distilled water are added. The final concentration of the active compound terbinafine, is 2% and that of the preferred carrier, benzyl alcohol 5%.

[2] = test system: T. rubrum, T. mentagrophytes; assay: clinical study, topical application, onychomycosis; assay type: in vivo, human; details: after discontinuation of therapy
Text: A total of 10 patients, identified clinically and mycologically (T. rubrum, T. mentagrophytes) were all mycologically cured. Within two weeks of applications all patients with intractable, longstanding (of up to 15 years or more) moccasin distribution fungal dermatomycosis were clinically and mycologically cured. After 2 months of application all patients with severe onychomycosis, also of very long standing duration, appeared mycologically cured (negative cultures). […] Some nails continued to display dystrophic changes commensurate with the slow rate of nail growth and replacement. This persistent and possible prophylactic response is attributed to the unique solubility characteristics of the compounds in question and to the ability of the selected solvents to deliver the drug to the subungual or keratin rich regions where the fungi accumulate, and to persist at such sites in a microcrystalline form after precipitation.
Compositions according to the present invention can be applied by conventional methods, including the use of a small brush with a nail-lacquer bottle, a roll-on applicator, or by a squeeze bottle with a small opening. In the results cited above, a small brush with a nail-lacquer bottle was used.

Compound: CN(C/C=C/C#CC(C)(C)C)Cc1cccc2ccccc12 [terbinafine]
- solubility in benzyl alcohol [1]: greater than 40 % w/vol
- recurrence upon discontinuation of therapy [2]: lack of any recurrence
